Assay results published in US20080300314A1, “Cooling Compounds” (Givaudan SA, priority 2003, published 2008).

How the values were obtained:
Type in all cases: in vivo, human
panelists [1] = test: Testing of compounds: panel tasting of aqueous solutions against menthol at 2 ppm (Table 2); details: for Concentration [ppm]: aqueous solution (compound dissolved in ethanol at 1% by weight, then dosed into water), cooling intensity similar to or slightly higher than menthol at 2 ppm; for Description: panel description of the aqueous solution at the concentration listed in Table 2, reference menthol 2 ppm
Source text: A small group of panelists were asked to taste various aqueous solutions of compounds. The compounds were first dissolved in ethanol at 1% by weight and then dosed into water.

panelists [2] = test: Panel taste test: longevity of cooling in the mouth (Table 1); details: solutions tasted at the chosen concentration; time until no cooling could be sensed in the mouth
Source text: In a second experiment, the same panel was asked to taste the solutions at the chosen concentrations and to record the cooling intensity at regular time intervals until no cooling could be sensed in the mouth.

panelists [3] = test: Panel taste test: concentration with cooling intensity similar or slightly higher than menthol at 2 ppm (Table 1); details: solution judged to have cooling intensity similar or slightly higher than menthol at 2 ppm; tasted by small panel
mouth = test: Application in toothpaste; details: toothgel with 2.5 g per 100 g of a 2% solution in PG; teeth brushed, mouth rinsed with water
Source text: [table] The materials are mixed in the toothgel, and a panelist's teeth are brushed using this toothgel. The mouth is rinsed with water and the water spit out. […] The cooling perception lasts for several hours.

| Structure (SMILES) | Concentration [ppm] (panelists [1]) | Description (panelists [1]) | further results |
| --- | --- | --- | --- |
| COC(=O)c1ccc(NC(=O)[C@@H]2C[C@H](C)CC[C@H]2C(C)C)cc1OC [Example 9, methyl 4-((1R,2S,5R)-2-isopropyl-5-methylcyclohexane-carboxamido)-2-methoxybenzoate] | 0.005 | – | – |
| CC(C)[C@@H]1CC[C@@H](C)C[C@H]1C(=O)Nc1ccc(C=O)cc1 [Example 19, (1R,2S,5R)-N-(4-formylphenyl)-2-isopropyl-5-methylcyclo-hexanecarboxamide] | 2 | cooling builds and lingers | – |
| CC1CCC(C(C)C)C(C(=O)Nc2ccc(C#N)cc2)C1 (centres unmarked) [Example 3, N-(4-cyanophenyl) p-menthanecarboxamide] | – | – | Longevity (panelists [2]): 90 min; Concentration (panelists [3]): 0.5 ppm |
| CCNC(=O)C1CC(C)CCC1C(C)C (centres unmarked) [N-ethyl p-menthanecarboxamide (WS-3), N-ethyl p-menthanecarboxamide, reference compound] | – | – | Longevity (panelists [2]): 57 min; Concentration (panelists [3]): 1.5 ppm |
| CC(C)[C@@H]1CC[C@@H](C)C[C@H]1C(=O)NCc1ccc(S(N)(=O)=O)cc1 [Example 27, (1R,2S,5R)-2-isopropyl-5-methyl-N-(4-sulfamoylbenzyl)-cyclohexanecarboxamide] | 2 | – | – |
| CC1CCC(C(C)C)C(C(=O)Nc2ccc(S(N)(=O)=O)cc2)C1 (centres unmarked) [Example 2, N-(4-sulfamoylphenyl) p-menthanecarboxamide] | – | – | Cooling sensation felt in the mouth (mouth): intense cooling sensation; Duration of cooling perception (mouth): several hours |
| CC1CCC(C(C)C)C(C(=O)Nc2ccc(CC#N)cc2)C1 (centres unmarked) [Example 1, N-(4-cyanomethylphenyl) p-menthanecarboxamide] | – | – | Longevity (panelists [2]): 93 min; Concentration (panelists [3]): 0.2 ppm |
| CC(C)[C@@H]1CC[C@@H](C)C[C@H]1C(=O)NCc1ccc(C#N)cc1 [Example 25, (1R,2S,5R)-N-(4-cyanobenzyl)-2-isopropyl-5-methylcyclohexanecarboxamide] | 2 | good icy cooling, slightly astringent | – |
| COC(=O)c1ccc(NC(=O)[C@@H]2C[C@H](C)CC[C@H]2C(C)C)cc1 [Example 15, methyl 4-((1R,2S,5R)-2-isopropyl-5-methylcyclohexane-carboxamido)benzoate] | 2 | slightly cooling, flat cooling | – |
| CC(C)[C@@H]1CC[C@@H](C)C[C@H]1C(=O)Nc1ccc(C(=O)O)cc1 [Example 23, 4-((1R,2S,5R)-2-isopropyl-5-methylcyclohexane-carboxamido)benzoic acid] | 2 | slightly burning then cooling | – |
| CC(C)[C@@H]1CC[C@@H](C)C[C@H]1O [Example 1-Menthol, (1R, 2S, 5R)-2-isopropyl-5-methyl-cyclohexanol, reference compound] | – | – | Longevity (panelists [2]): 35 min; Concentration (panelists [3]): 2.0 ppm |
| CC(C)[C@@H]1CC[C@@H](C)C[C@H]1C(=O)Nc1ccccc1C#N [Example 30, (1R,2S,5R)-N-(2-cyanophenyl)-2-isopropyl-5-methylcyclohexane-carboxamide] | 2 | clean, slightly stronger than menthol | – |
| CCOC(=O)c1ccc(NC(=O)[C@@H]2C[C@H](C)CC[C@H]2C(C)C)cc1 [Example 16, ethyl 4-((1R,2S,5R)-2-isopropyl-5-methylcyclohexane-carboxamido)benzoate] | 2 | Cooling similar to menthol | – |
| CC(C)Oc1ccc(CNC(=O)[C@@H]2C[C@H](C)CC[C@H]2C(C)C)cc1 [Example 7, (1R,2S,5R)-N-(4-isopropoxybenzyl)-2-isopropyl-5-methylcyclohexanecarboxamide] | 0.01 | – | – |
| CC(C)[C@@H]1CC[C@@H](C)CC1C(=O)Nc1cccc(C#N)c1 (stereo partly drawn) [Example 31, (2S,5R)-N-(3-cyanophenyl)-2-isopropyl-5-methylcyclohexane-carboxamide] | 1 | weak cooling, tingling, numbing on tongue, | – |
| CCOC(=O)Cc1ccc(NC(=O)[C@@H]2C[C@H](C)CC[C@H]2C(C)C)cc1 [Example 29, ethyl 2-(4-((1R,2S,5R)-2-isopropyl-5-methylcyclohexane-carboxamido)phenyl)acetate] | 2 | icy, crisp cool on tongue | – |
| CC(C)[C@@H]1CC[C@@H](C)C[C@H]1C(=O)Nc1ccccc1C#N [Example 32] | 2 | mouthcoating, more cooling than menthol | – |
| CC(C)[C@@H]1CC[C@@H](C)C[C@H]1C(=O)NCc1ccc(C(=O)O)cc1 [Example 28, 4-(((1R,2S,5R)-2-isopropyl-5-methyl-cyclohexanecarboxamido)-methyl)benzoic acid] | 2 | strong cooling up front, peppery heat | – |
| CC(C)[C@@H]1CC[C@@H](C)C[C@H]1C(=O)NCc1ccc(C(=O)O)cc1 [Example 24, 4-(((1R,2S,5R)-2-isopropyl-5-methylcyclohexane-carboxamido)methyl)benzoic acid] | 2 | little cooling, slightly refreshing | – |
